Assay results: PubChem BioAssay (NCI)
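Where inhibition never reached the appropriate level, the endpoint shown equals the highest concentration tested. Otherwise, values were interpolated linearly from a five-concentration, 48-hour dose response in 96-well plates. Here, GI50 denotes the concentration required for 50% inhibition of growth. TGI: total growth inhibition.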

Experiments:
Test in all cases: growth of human tumour cells (NCI), 48 h
[1] = system: 786-0 renal
[2] = system: A498 renal
[3] = system: A549 NSCLC
[4] = system: ACHN renal
[5] = system: BT-549 breast
[6] = system: CAKI-1 renal
[7] = system: CCRF-CEM leukemia
[8] = system: DU-145 prostate
[9] = system: EKVX NSCLC
[10] = system: HCC-2998 colon
[11] = system: HCT-116 colon
[12] = system: HCT-15 colon
[13] = system: HL-60(TB) leukemia
[14] = system: HOP-62 NSCLC
[15] = system: HOP-92 NSCLC
[16] = system: HS 578T breast
[17] = system: HT29 colon
[18] = system: IGROV1 ovarian
[19] = system: K-562 leukemia
[20] = system: KM12 colon
[21] = system: LOX IMVI melanoma
[22] = system: M14 melanoma
[23] = system: MALME-3M melanoma
[24] = system: MCF7 breast
[25] = system: MDA-MB-231 breast
[26] = system: MOLT-4 leukemia
[27] = system: NCI-H226 lung
[28] = system: NCI-H23 lung
[29] = system: NCI-H460 lung
[30] = system: NCI-H522 lung
[31] = system: NCI/ADR-RES ovarian
[32] = system: OVCAR-3 ovarian
[33] = system: OVCAR-4 ovarian
[34] = system: OVCAR-5 ovarian
[35] = system: OVCAR-8 ovarian
[36] = system: PC-3 prostate
[37] = system: RPMI-8226 leukemia
[38] = system: RXF 393 renal
[39] = system: SF-268 CNS
[40] = system: SF-295 CNS
[41] = system: SF-539 CNS
[42] = system: SK-MEL-2 melanoma
[43] = system: SK-MEL-28 melanoma
[44] = system: SK-MEL-5 melanoma
[45] = system: SK-OV-3 ovarian
[46] = system: SN12C renal
[47] = system: SNB-19 CNS
[48] = system: SNB-75 CNS
[49] = system: SR leukemia
[50] = system: SW-620 colon
[51] = system: T-47D breast
[52] = system: TK-10 renal
[53] = system: U251 CNS
[54] = system: UACC-257 melanoma
[55] = system: UACC-62 melanoma
[56] = system: UO-31 renal

SMILES: O=C(N/N=C/c1ccc(Br)s1)c1[nH]c2ccc(Br)cc2c1-c1ccccc1
- GI50 [1]: 1.26 µM
- TGI [1]: > 100 µM
- GI50 [2]: 35.2 µM
- TGI [2]: > 84.1 µM
- GI50 [3]: 1.01 µM
- TGI [3]: > 44 µM
- GI50 [4]: 0.903 µM
- TGI [4]: > 45.5 µM
- GI50 [5]: 0.738 µM
- TGI [5]: 2.16 µM
- GI50 [6]: 1.24 µM
- TGI [6]: > 39 µM
- GI50 [7]: 0.37 µM
- TGI [7]: > 100 µM
- GI50 [8]: 0.7 µM
- TGI [8]: > 59.8 µM
- GI50 [9]: 4.92 µM
- TGI [9]: > 100 µM
- GI50 [10]: 1.04 µM
- TGI [10]: > 47.4 µM
- GI50 [11]: 0.282 µM
- TGI [11]: > 100 µM
- GI50 [12]: 0.934 µM
- TGI [12]: > 36.2 µM
- GI50 [13]: < 0.0484 µM
- TGI [13]: 0.387 µM
- GI50 [14]: 1.29 µM
- TGI [14]: > 66.9 µM
- GI50 [15]: 0.462 µM
- TGI [15]: > 69.1 µM
- GI50 [16]: 0.791 µM
- TGI [16]: 41.9 µM
- GI50 [17]: 0.311 µM
- TGI [17]: > 35.8 µM
- GI50 [18]: 0.983 µM
- TGI [18]: > 39.1 µM
- GI50 [19]: 0.327 µM
- TGI [19]: > 100 µM
- GI50 [20]: 1.18 µM
- TGI [20]: > 79.6 µM
- GI50 [21]: 0.312 µM
- TGI [21]: 1.35 µM
- GI50 [22]: 1.03 µM
- TGI [22]: > 100 µM
- GI50 [23]: 1.31 µM
- TGI [23]: > 68.1 µM
- GI50 [24]: 0.852 µM
- TGI [24]: > 34.5 µM
- GI50 [25]: 2.31 µM
- TGI [25]: > 100 µM
- GI50 [26]: 0.203 µM
- TGI [26]: 38.9 µM
- GI50 [27]: 0.826 µM
- TGI [27]: > 37 µM
- GI50 [28]: 0.895 µM
- TGI [28]: > 51.7 µM
- GI50 [29]: 0.762 µM
- TGI [29]: 8.09 µM
- GI50 [30]: 0.0898 µM
- TGI [30]: 0.344 µM
- GI50 [31]: 0.131 µM
- TGI [31]: 7.11 µM
- GI50 [32]: 0.638 µM
- TGI [32]: 38.4 µM
- GI50 [33]: 1.21 µM
- TGI [33]: > 53 µM
- GI50 [34]: 0.863 µM
- TGI [34]: > 86.1 µM
- GI50 [35]: 0.296 µM
- TGI [35]: 1.82 µM
- GI50 [36]: 0.386 µM
- TGI [36]: > 52.3 µM
- GI50 [37]: 0.377 µM
- TGI [37]: > 62.5 µM
- GI50 [38]: 1.27 µM
- TGI [38]: 37.3 µM
- GI50 [39]: 1.61 µM
- TGI [39]: > 100 µM
- GI50 [40]: 0.907 µM
- TGI [40]: 11 µM
- GI50 [41]: 0.292 µM
- TGI [41]: 1.15 µM
- GI50 [42]: 0.71 µM
- TGI [42]: > 50.4 µM
- GI50 [43]: 1.72 µM
- TGI [43]: > 88 µM
- GI50 [44]: 0.675 µM
- TGI [44]: 1.52 µM
- GI50 [45]: 4.07 µM
- TGI [45]: > 100 µM
- GI50 [46]: 0.547 µM
- TGI [46]: > 38.2 µM
- GI50 [47]: 1.07 µM
- TGI [47]: > 95.7 µM
- GI50 [48]: 0.843 µM
- TGI [48]: 7.95 µM
- GI50 [49]: 0.27 µM
- TGI [49]: > 50.1 µM
- GI50 [50]: 0.418 µM
- TGI [50]: > 100 µM
- GI50 [51]: 7.05 µM
- TGI [51]: > 100 µM
- GI50 [52]: 8.83 µM
- TGI [52]: > 82.8 µM
- GI50 [53]: 0.989 µM
- TGI [53]: > 39.9 µM
- GI50 [54]: 1.06 µM
- TGI [54]: > 88.3 µM
- GI50 [55]: 1.03 µM
- TGI [55]: > 46.1 µM
- GI50 [56]: 1.4 µM
- TGI [56]: > 100 µM
